The values that follow come from patent publication US20250092001A1, “NOVEL EXCITATORY AMINO ACID GLUTAMATE TRANSPORT MODULATORS AND METHODS USING THE SAME” (Drexel University, priority 2022, published 2025).

Data set [1] relates to Drosophila model of Huntington's Disease (Htt model). The experiment in a line: Larval locomotion assay in Drosophila Huntington's disease model. It counts as in vivo. The following applies: third instar larvae; concentrations as low as two-fold below EC50 and one-fold below EC50. The source says: FIG. 6A illustrate certain aspects of a locomotion assay used to assay the locomotive activities. […] FIGS. 6B and 6C depict the results of the locomotion assay results of wild-type Drosophila (“WT”), as well as Drosophila of a Huntington's disease model treated with vehicle (“Veh”) or with various concentrations of two exemplary GLT-1 modulators. […] The Drosophila Htt model is produced by crossing UAS-Htt([…]) male flies with elav-Gal4 virgin female flies. Both fly strains were purchased from Bloomington Drosophila Stock Center (BDSC, Indiana, USA). […] Locomotion assays were conducted by transferring the third instar larvae of flies to agar plates (FIG. 6A) and counting the number of grid lines crossed in 30 seconds.

The nature of data set [2]: Pharmacokinetics of GT467 and GT511 in rats, plasma and brain (IV, IP, PO). The data set is classed as in vivo, rat. The following applies: for AUC0-t: 0 to 24 hrs. As to the method: Pharmacokinetics (PK) study for GT951 was conducted at Melior Discovery Services (Exton, PA). Fifteen male CD-1 mice 23-50 g was used for the study and the mice were housed 3 per cage. PK studies for GT467 and GT511 were conducted at Piramal Pharma solutions under approved protocols (Pune, India). One hundred and sixty-eight male Wistar rats were used for the study and housed 4 per cage. All animals were maintained on a standard 12 h light cycle and given free access to water and standard rodent chow. Food and water were available ad libitum. Animals were not fasted for any portion of the study and animals were acclimated to the animal care facility for seven days prior to the start of the experiment. The holding room and procedure room temperature was 21-23° C. and humidity was at 40-45% during the experiment (within the normal range of the care facility). All procedures were completed according to Institutional Animal Care and Use Committee (IACUC) approved protocols for housing and for PK studies.
Rats were dosed with the drug and blood and brain samples were collected at 0.5, 1, 2, 4, 8 and 24 h time points. Blood was collected via the sub-lingual vein under anesthesia into tubes containing Na2EDTA as an anticoagulant. Plasma fraction was separated by centrifuging the samples at 10,000 rpm for 5 min and the plasma was transferred to a cryo tube and stored at −80 C. Animals were euthanized and the brain was rapidly removed on ice and weighed. Brain was homogenized in Milli Q water and the homogenate was stored at −80 C until further use. Bioanalysis of the samples was performed using the SCIEX QTRAP 5500 LCMS/MS system with Phenomenex synergy C18 column and carbamazepine as internal standard. A methanol extraction procedure was used to precipitate the proteins in the sample. In addition to the internal standards, drug free plasma and brain samples were prepared for calibration and quantification standards. All samples were within the detectable range of the standard curves. 50 μl of the sample was added to 200 μl of the working solution of the internal standard and centrifuged for 5 min at 10,000 rpm. 60 μl of the supernatant was added to 140 μl of water and mixed well prior to transferring them for quantitative analysis on LCMS.
Specifically, rats were administered with GT467 or GT511 intraperitoneally (IP), intravenously (IV) or orally (PO). The concentration of the administered compounds measured at various timepoints in the plasma are depicted in FIGS. 4A and 4B, the concentrations of the administered compounds measured at various timepoints in the brain are depicted in FIGS. 5A and 5B.
Furthermore, pharmacokinetic parameters such as the peak concentration (Cmax), the time to reach the peak concentration (Tmax), the area under curve from time 0 to T (i.e., 24 hrs) (AUC0-t), the area under curve from time 0 to infinite (AUC0-∞), the half-life (t1/2), the oral clearance (CL/F), the volume of distribution of drug observed (Vz_F_obs), and the percentage of bioavailability (% Bioavailability) were also measured or calculated.

Data set [3] concerns Drosophila model of Huntington's disease. The experiment in a line: Longevity assay. The data set is classed as in vivo. The note with it: Huntington's disease model flies; up to about day 40. As to the method:
The longevity assay was performed according to Romero et al., Neuron, 57(1), 27-40 and Linford et al., JoVE (Journal of Visualized Experiments), (71). Briefly, 100 adult flies from wild type and HTT phenotype (male and female) were collected in each designated tube and fed with food containing the specific concentration of drug. Every 2-3 days the flies were moved into new vials with fresh food and drug. Dead flies were removed and the number of flies alive during each change is noted. The tunes were maintained until the last available fly and the data was plotted as a survival curve. FIG. 8A illustrates certain aspects of a longevity assay. FIG. 8B depicts the results of the longevity assay. […] The survival rates of the flies were recorded over time.

Data set [4] shares this test system. The experiment in a line: Larval olfactory associative learning test. It counts as in vivo. The following applies: Elav x Htt larvae; 3.53 nM GT467, […] GT511. As to the method:
FIG. 7A illustrates certain aspects of a larval olfactory associative learning used to test learning and memory. In FIG. 7A, larvae were trained with either a reinforcer solution containing sucrose (“LIN/SUC”) or a control of distilled water (“LIN/DW”). The trained larvae were then transferred to a dish having test odorant placed on one side and a control on the opposite side. […] The ΔRI (difference between LIN/SUC and LIN/DW performance scores) were then calculated for the high performers (FIG. 7B), low performers (FIG. 7C) and non-performers (FIG. 7D). […] Referring to FIG. 7A, Drosophila larvae were trained with either a reinforcer solution containing sucrose (“LIN/SUC”) or a control of distilled water (“LIN/DW”). The trained larvae were then transferred to a dish having test odorant placed on one side and a control on the opposite side. The ΔRI were then calculated for the high performers (FIG. 7B), low performers (FIG. 7C) and non-performers (FIG. 7D).

Data set [5] relates to R6/2 mice (Huntington disease model). Kind of data set: Open field locomotion test. The data set is classed as in vivo, mouse. The note with it: 200 mg/kg, versus wild-type treated with vehicle. As for the experimental part:
FIG. 9A depicts the results of a locomotion test. In the locomotion test of FIG. 9A, wildtype and R6/2 mice treated with vehicle or different doses of GTS467 (2, 4, and 10 mg/kg) or ceftriaxone (200 mg/kg) were subjected to the open field test to evaluate their locomotor abilities in a 44×44 cm and 43×43 cm square open field arena. Animals were placed individually in the open field arena and behavior was recorded for a period of 5 minutes under dim light and low noise conditions. Animal behavior was recorded using an overhead camera and the distance moved was recorded and quantified using the Noldus ethovision XT-14 software. FIG. 9B depicts the results of a memory task test. Referring to FIG. 9B, to test for memory impairment a novel object recognition assay was performed. A 44×44 cm square shaped open field arena was used to perform this test at week 12 and week 15. The behavioral evaluation was performed in 2 sets, each set having equal number of animals. […] The behavior was recorded under dim light and low noise conditions using an overhead camera. Cumulative duration with both the objects, total object exploration (sec), distance travelled (cm) was quantified using the Noldus ethovision XT 14 software. […]

For data set [6] the test system is unchanged. The experiment in a line: Novel object recognition assay. It counts as in vivo, mouse. The note with it: 200 mg/kg, versus wild-type treated with vehicle.
Description: Referring to FIG. 9B, to test for memory impairment a novel object recognition assay was performed. A 44×44 cm square shaped open field arena was used to perform this test at week 12 and week 15. The behavioral evaluation was performed in 2 sets, each set having equal number of animals. The animals were subjected to habituation a day prior to the commencement of test for 5 min followed by familiarization with similar objects for 10 min and tested with different objects for 10 min on the following day. The behavior was recorded under dim light and low noise conditions using an overhead camera. Cumulative duration with both the objects, total object exploration (sec), distance travelled (cm) was quantified using the Noldus ethovision XT 14 software.
Setting [7] is: male, Wistar, rat plasma, IP 10 mg/kg.
[8] abbreviates: male, Wistar, rat plasma, IV 5 mg/kg.
[9] abbreviates: male, Wistar, rat plasma, PO 10 mg/kg.

Where two headings read alike, the source gives them in different places.

With `COc1ccc(NC(=O)C(=O)N2CCN(c3ccccc3)CC2)cc1` [GT511, N-(4-methoxyphenyl)-2-oxo-2-(4-phenylpiperazin-1-yl)acetamide], the “Locomotor ability (grid lines crossed in 30 seconds)” value in data set [1] was “restores the Huntington's disease model flies' locomotor ability”. Also, the AUC(0-inf) in data set [2] (setting [7]) was found to be 1130 ng·h/mL; in data set [2] (setting [8]), 995 ng·h/mL; in data set [2] (setting [9]) it was 399 ng·h/mL. Moreover, the Cmax in data set [2] (setting [7]) worked out at 450 ng/mL; in data set [2] (setting [8]) it was 567 ng/mL; in data set [2] (setting [9]) it was 42.9 ng/mL. Further, the AUC0-t in data set [2] (male, Wistar, rat plasma, IP 10 mg/kg, read-out: AUC0-t) is 1070 ng·h/mL; in data set [2] (male, Wistar, rat plasma, IV 5 mg/kg, read-out: AUC0-t) it was 919 ng·h/mL; in data set [2] (male, Wistar, rat plasma, PO 10 mg/kg, read-out: AUC0-t), 322 ng·h/mL; in data set [2] (rat brain, IP 10 mg/kg) it was 429.85 ng·h/g; in data set [2] (rat brain, IV 5 mg/kg), 443.23 ng·h/g; in data set [2] (rat brain, PO 10 mg/kg), 183.00 ng·h/g. Further, the CL/F was 149 mL/min/kg in data set [2] (male, Wistar, rat plasma, IP 10 mg/kg, read-out: CL/F (converted)); 505 mL/min/kg in data set [2] (male, Wistar, rat plasma, PO 10 mg/kg, read-out: CL/F (converted)); 86.3097 mL/min/kg in data set [2] (rat plasma, IV 5 mg/kg). In addition, the “AUC0-∞” value was found to be 467.11 ng·h/g in data set [2] (rat brain, IP 10 mg/kg) and 483.13 ng·h/g in data set [2] (rat brain, IV 5 mg/kg). In addition, the Tmax was 0.50 h in data set [2] (rat brain, IP 10 mg/kg); 0.50 h in data set [2] (rat brain, IV 5 mg/kg); 1.38 h in data set [2] (rat brain, PO 10 mg/kg); 0.63 h in data set [2] (rat plasma, IP 10 mg/kg); 0.50 h in data set [2] (rat plasma, IV 5 mg/kg); 3.25 h in data set [2] (rat plasma, PO 10 mg/kg). For the same compound, the t1/2 in data set [2] (rat brain, IP 10 mg/kg) stood at 2.26 h; in data set [2] (rat brain, IV 5 mg/kg) it was 1.52 h; in data set [2] (rat plasma, IP 10 mg/kg), 6.22 h; in data set [2] (rat plasma, IV 5 mg/kg), 6.08 h; in data set [2] (rat plasma, PO 10 mg/kg), 5.34 h. Besides, the “% Bioavailability” value is reported as 58.36% in data set [2] (rat plasma, IP 10 mg/kg) and 17.51% in data set [2] (rat plasma, PO 10 mg/kg). For the same compound, the Vz_F_obs in data set [2] (rat plasma, IP 10 mg/kg) stood at 79.2212 L/kg; in data set [2] (rat plasma, IV 5 mg/kg), 41.46389 L/kg; in data set [2] (rat plasma, PO 10 mg/kg), 198.88289 L/kg. Besides, the “Plasma concentration and brain concentration by route of administration” value in data set [2] (rats, IP, IV, PO) is “higher plasma concentration and brain concentration than oral administration”. In data set [3], the Survival rate result is given as “significantly improved the survival rate”. In data set [4], the “Olfactory learning performance (ΔRI)” value is recorded as “improved significantly”.

As to `CO/N=C(\C(=O)N[C@@H]1C(=O)N2C(C(=O)O)=C(CSc3nc(=O)c(=O)[nH]n3C)CS[C@H]12)c1csc(N)n1` [ceftriaxone, (6R,7R)-7-{[(2Z)-2-(2-amino-1,3-thiazol-4-yl)->2-(methoxyimino)acetyl]amino}-3-{[(2-methyl-5,6-dioxo-1,2,5,6-tetrahydro-1,2,4-triazin-3-yl)thio]methyl}-8-oxo-5-thia-1-azabicyclo[4.2.0]oct-2-ene-2-carboxylic acid, reference compound], the Distance moved result in data set [5] is “move significantly shorter distances”. Moreover, the Recognition index result in data set [6] is listed as “scored significantly lower in recognition index”.

The term AUC(0-inf) denotes the area under the concentration-time curve extrapolated to infinity. As usually defined, the Cmax is the maximum level reached in the sampled fluid or tissue. A word on the Tmax: it is the time from dosing to the highest level.
